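Step 1: Grow cells in 96-well plates. Step 2: Expose to compound for 48 hours at 5 concentrations. Step 3: Interpolate endpoints linearly; if unreached, use highest concentration. GI50 = concentration required for 50% inhibition of growth.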 Active and inactive are the calls of the source. No stated cut-off is given here; in the data, active = GI50 up to about 1.1 µM and inactive = higher.

What all share (assay): NCI-60 cell line screen, 48 h
The test system of assay [1] is 786-0.
For assay [2], the system named is A549.
Assay [3] deals with BT-549.
The subject of assay [4] is COLO 205.
For assay [5], the system named is EKVX.
Assay [6] relates to HOP-92.
For assay [7], the system named is KM12.
Assay [8] concerns MOLT-4.
Assay [9] has as its system NCI-H460.
Assay [10] deals with NCI-H522.
Assay [11] has as its system OVCAR-3.
Assay [12] concerns OVCAR-4.
The subject of assay [13] is PC-3.
Assay [14] concerns RPMI-8226.
Assay [15] relates to SK-MEL-28.
The test system of assay [16] is SK-MEL-2.
In assay [17] the test system is SK-MEL-5.
Assay [18] has as its system SN12C.
Assay [19] deals with SW-620.
For assay [20], the system named is UO-31.

As to `CN1N=C(c2ccccc2)C(C(c2ccccc2[N+](=O)[O-])C2C(=O)N(C)N=C2c2ccccc2)C1=O` (stereo not given), the GI50 was > 70 µM (inactive) in assay [1]; > 100 µM (inactive) in assay [2]; 63.4 µM (inactive) in assay [3]; > 100 µM (inactive) in [4]; > 100 µM (inactive) in [5]; > 80.9 µM (inactive) in assay [6]. The GI50 in assay [7] was > 75 µM (inactive); in [8] it was 37.6 µM (inactive); in assay [9] it was > 100 µM (inactive); in assay [10], 99.8 µM (inactive); in [11] it was 44.6 µM (inactive); in [12], > 100 µM (inactive). For the same molecule, the GI50 was 67.5 µM (inactive) in [13]; 34.3 µM (inactive) in [14]; > 100 µM (inactive) in assay [15]; 66.5 µM (inactive) in [16]; > 100 µM (inactive) in assay [17]; > 95.1 µM (inactive) in assay [18]. The values for the GI50 in assay [19] and in assay [20] were 99.3 µM (inactive) and > 100 µM (inactive), respectively.

Take `COc1ccccc1/C=C/c1cnccn1`: the GI50 in [1], in assay [2], in assay [3], in assay [4], in assay [5] and in assay [6] was > 10 µM (inactive) throughout. The GI50 in assay [7], in assay [8], in [9], in [10], in assay [11] and in assay [12] was > 10 µM (inactive) each time. Moreover, the GI50 in assay [13], in [14], in [15], in assay [16], in assay [17] and in assay [18] was > 10 µM (inactive) throughout. Besides, the GI50 in assay [19] and in [20] was > 10 µM (inactive) each time.

In the case of `O=C1C2C=CC1C1C(=O)OC(=O)C21` (stereo not given), the GI50 in assay [1], in assay [2], in assay [3], in assay [4], in assay [5] and in assay [6] was > 100 µM (inactive) in each case. For the same molecule, the GI50 in assay [7], in assay [8], in assay [9], in assay [10], in [11] and in [12] was > 100 µM (inactive) throughout. Besides, the GI50 in [13], in assay [14], in assay [15], in [16], in assay [17] and in [18] was > 100 µM (inactive) in each case. Further, the GI50 in [19] and in assay [20] was > 100 µM (inactive) each time.

Take `CC1=C(/C=C/C(C)=C/C=C/C(C)=C/C(=O)Nc2ccc(O)cc2)C(C)(C)CCC1` [FENRETINIDE]: the GI50 is 2.58 µM (inactive) in assay [1]; 5.97 µM (inactive) in assay [2]; 6.52 µM (inactive) in [3]; 2.61 µM (inactive) in assay [4]; 9.25 µM (inactive) in [5]; 2.97 µM (inactive) in assay [6]. For the same molecule, the GI50 in [7] was 3.92 µM (inactive); in [8], 1.11 µM (active); in assay [9], 4.63 µM (inactive); in assay [10], 0.929 µM (active); in assay [11] it was 2.55 µM (inactive); in [12], 3.94 µM (inactive). For the same molecule, the GI50 is 3.13 µM (inactive) in [13]; 1.65 µM (inactive) in [14]; 4.23 µM (inactive) in assay [15]; 7.33 µM (inactive) in [16]; 4.15 µM (inactive) in assay [17]; 2.52 µM (inactive) in assay [18]. The GI50 in assay [19] is 5.48 µM (inactive); in assay [20], 3.26 µM (inactive).

Consider `NS(=O)(=O)c1nnc(/N=C(/CCC(=O)O)C(=O)O)s1`, for which the GI50 in assay [1], in assay [2], in assay [3], in [4], in assay [5] and in [6] was > 100 µM (inactive) in each case. The GI50 in assay [7] was 20.5 µM (inactive); in assay [8], > 100 µM (inactive); in assay [9], > 100 µM (inactive); in assay [10] it was > 100 µM (inactive); in assay [11], > 100 µM (inactive); in [12], > 100 µM (inactive). The GI50 in assay [13], in assay [14], in [15], in assay [16], in [17] and in [18] was > 100 µM (inactive) in each case. Moreover, the GI50 in assay [19] and in [20] was > 100 µM (inactive) in each case.

Consider `CCCCCCCC(=O)N/N=C/c1ccc(Sc2nccn2C)c([N+](=O)[O-])c1`, for which the GI50 in assay [1] is 14.9 µM (inactive); in [2] it was 27.9 µM (inactive); in [3] it was 16.1 µM (inactive); in [4] it was 13.7 µM (inactive); in [5], 14.7 µM (inactive); in [6], 3.33 µM (inactive). Moreover, the GI50 was 14.1 µM (inactive) in assay [7]; 11.4 µM (inactive) in assay [8]; 14.9 µM (inactive) in assay [9]; 12.2 µM (inactive) in assay [10]; 15.6 µM (inactive) in assay [11]; 13.2 µM (inactive) in assay [12]. The GI50 in assay [13] is 15.6 µM (inactive); in assay [14] it was 13 µM (inactive); in assay [15], 13.9 µM (inactive); in [16] it was 16.6 µM (inactive); in [17], 12.9 µM (inactive); in assay [18] it was 14.5 µM (inactive). Moreover, the GI50 was 14.9 µM (inactive) in assay [19] and 10.3 µM (inactive) in [20].
